Results as given in PMC4830886, “Extended evaluation on the ES-D3 cell differentiation assay combined with the BeWo transport model, to predict relative developmental toxicity of triazole compounds” (Archives of Toxicology, 2015).

Legend:
in vitro = conditions: human
Description: (§1) To study placental transfer of test compounds, BeWo transport experiments were performed as described previously (Li et al. [2013]). Briefly, BeWo b30 cells (passages 27–45) were cultured in DMEM (Zwijndrecht, The Netherlands), supplemented with 10 % (v/v) heat-inactivated FCS (HyClone-Perbio, Etten-Leur, The Netherlands), 10,000 U/ml penicillin, 10 mg/ml streptomycin and 2 mM L-glutamine. The cells were seeded at a density of 1 × 10^5 cells/cm^2 on transwell® polycarbonate membranes (12 mm diameter, 0.4 μm pore size) (VWR International BV, Amsterdam, The Netherlands) coated with human placental collagen. The medium (0.5-ml apical compartment, 1.5-ml basolateral compartment) was replaced daily. At day 6 postseeding, the BeWo b30 cell layers were used for transport experiments. The barrier-forming capacity of the BeWo cell layers was evaluated by measuring the transepithelial electrical resistance (TEER) of the cell monolayer using a Millicell ERS-2 Volt-Ohm Meter (Millipore, USA) at day 6 postseeding as described previously (Li et al. [2013]). Only the cell layers showing TEER values between 80 and 100 Ω cm^2 were used for transport experiments.
(§2) Transport experiments were initiated by adding 0.5 ml of transport buffer Hank’s balanced salt solution (HBSS, Invitrogen, Breda, The Netherlands) containing the test compound, being 0594, 0595, 0596, 0599, 0600 and 0618, dissolved in DMSO (final solvent concentration 0.5 % DMSO), at concentration of 50 μM, to the apical compartment and 1.5 ml transport buffer to the basolateral compartment. Subsequently, the plate was incubated in a humidified atmosphere with 5 % CO2 at 37 °C. After 15, 30, 60 and 90 min, a sample of 0.2 ml was taken from the basolateral compartment and replaced by an equal volume of transport buffer. At the end of each experiment, a 0.2-ml sample was also taken from the apical compartment. Subsequently, the filters with the BeWo b30 cell layers were washed three times with PBS, cut out of the insert, dissolved in 0.25 ml 65 % (v/v) methanol and sonificated for 15 min in a Bandelin Sonorex RK100 (Berlin, Germany) in order to determine the amount of compound accumulated in the cells. After each experiment, mass balance calculations were performed. In each transport study, amoxicillin and antipyrine were included as control and reference compounds. Amoxicillin transport was included to assess for monolayer integrity since it is a compound known to be transported only to a limited extent across the placenta, whereas antipyrine was included as a control for optimal transport and a reference compound to enable calculation of relative transport rates (Li et al. [2013]). The transport of the six test compounds, as well as the reference compounds amoxicillin and antipyrine, through the permeable membrane of the transwell filter in the absence of BeWo cells was determined as well. […] For each test compound, three independent experiments were performed, with three technical replicates per experiment.
(§3) Samples were analyzed using high-performance liquid chromatography (HPLC) to quantify the amount of test compound in order to determine the transport rate and to perform mass balance calculations. The HPLC system used consisted of a Waters (Milford, MA) 600 controller and a 600 pump, equipped with a photodiode array detector set to record absorption of wavelengths between 200 and 400 nm. A Waters 717 plus autosampler was used for sample injection. The temperature of the autosampler was kept at 7 °C.
(§4) For analysis of all compounds, 50 μl sample was injected to a C18 5 μm reverse-phase column (150 mm × 4.6 mm I.D.) with a guard column (7.5 mm × 4.6 mm I.D.) (Alltech, Bergen op Zoom, The Netherlands). The mobile phase used for analysis of all the test compounds consisted of (A) 0.1 % trifluoroacetic acid in nanopure water and (B) HPLC-grade acetonitrile. Elution was at a flow rate of 0.8 ml/min, starting at 22 % B with a linear increase to 100 % B in 8 min.

BeWo b30 cell layers = assay: in vitro BeWo transport model (placental transfer)
Description: as §1, §2, §3, §4

## Cc1cc(=O)n(-c2ccccc2)n1C [Antipyrine, antipyrine, reference compound]
In vitro
  Papp at 30 min, 50 μM: 38.9 ± 3 ×10⁻⁶ cm/s
BeWo b30 cell layers; human, 90 min, 50 μM
  Intracellular accumulation (% of added amount): 0 % of added amount
BeWo b30 cell layers; human, not told, 50 μM
  Relative Papp value: 1.00

## CC1(C)S[C@@H]2[C@H](NC(=O)[C@H](N)c3ccc(O)cc3)C(=O)N2[C@H]1C(=O)O [Amoxicillin, amoxicillin, reference compound]
In vitro
  Papp at 30 min, 50 μM: 6.5 ± 0.2 ×10⁻⁶ cm/s
BeWo b30 cell layers; BeWo cells, 50 μM (25 nmol) apical, at 90 min
  Intracellular accumulation (% of added amount): 0 % of added amount
